{"source": "patent US4461772A", "about": "“Additives for improving ruminant feed utilization” (SDS Biotech Corporation, priority 1983, dated 1984)", "key": {"[1]": {"test_system": "rumen fluid", "assay": "In vitro rumen fluid incubation (18 h): volatile fatty acids and methane inhibition", "assay_type": "cell-based, sheep", "settings": "39° C.; for C2 (acetate), Ratio Treated to Control / C3 (propionate), Ratio Treated to Control / C4 (butyrate), Ratio Treated to Control / Total VFA, Ratio Treated to Control: 50.0 ppm, pH 7.0; for inhibition at 50 ppm: Ovis aries, vs negative control", "description": "Below is set forth the procedure followed for testing the compounds of the present invention in vitro. For these studies, rumen fistulated sheep were fed a concentrate diet which constituted 3 parts chopped corn and cob and 1 part alfalfa pellets.\n1. Rumen fluid was removed from a fistulated sheep and strained through 4 layers of cheese cloth to remove large feed particles.\n2. One part rumen fluid was added to 3 parts of modified McDougal's Artificial Saliva, the pH was adjusted to 7.0 and the saliva solution was prewarmed to 39° C. in a water bath and gassed with CO2.\n(a) Modified McDougal Artificial Saliva composition:\nTo prepare (a), (i) 9.8 g NaHCO3, 11.7 g KHCO3, 5.1 g NaH2 PO4 and 4.08 g KH2 PO4 were diluted with two (2) liters of distilled H2 O; (ii) 20 mL of 100X salt solution was diluted to 1.33 l with tap H2 O; and (iii) mix (i) with (ii) to prepare the modified McDougal Artificial Saliva.\n3. Add 0.01 g concentrate feed/1 mL of buffered rumen fluid (the buffered rumen fluid with concentrate should be stirred at all times to prevent the concentrate from settling).\n4. Dispense 20 mL of buffered rumen fluid into 30 mL serum bottles that are being gassed with CO2. (A manifold that gases 12 bottles at a time was used.) The bottles should be in a 39° C. H2 O bath.\n5. The test compounds, i.e., the compounds of the present invention, were first added to the bottles. After the addition of the buffered rumen fluid to all 12 bottles, the gassing cannulae were quickly removed and a butyl rubber stopper was inserted in each bottle. An aluminum seal was then placed on each bottle and crimped tight.\n6. The sealed bottles were removed from the water bath, shaken and placed in a 39° C. incubator for 18 hours.\n7. After the 18-hour incubation, the bottles were removed from the incubator and the head space gas was analyzed using a gas partitioner.\n8. Four mL of rumen fluid was removed from each bottle for volatile fatty acid (VFA) analysis.\n(a) The 4 mL sample was added to a centrifuge tube to which had previously been added 0.04 mL of 50 percent H2 SO4 and 1 mL 2-ethylbutyric acid (concentration 2 mL of 2-ethylbutyric acid/500 mL H2 O v/v).\n(b) The mixture from (a) was centrifuged at 10000 xg for 20 minutes.\n(c) The supernatant was removed and analyzed by gas-liquid chromatography. The above procedures were followed in all trials for testing the compounds of the present invention."}, "[2]": {"test_system": "rumen", "assay": "In vivo rumen VFA trial in rumen fistulated sheep (90 days)", "settings": "90 day trial average", "excerpt": "Eight rumen fistulated sheep were used as test animals. Two sheep were alotted to each of three treatments and a control for each test. Group I was always the control group in each of the different trials. Groups II through IV had varying concentrations of compounds of the present invention added to the animals' feed. The feed ration in each trial constituted 3 parts chopped corn and cob and 1 part alfalfa pellets. Each sheep was offered 800 g daily of the feed in two equal portions. The particular compound and vitamin premix were mixed with chopped corn and cob. Any feed refusals were weighed back before each feeding and discarded. To prevent any mold growth, the feed was stored under refrigeration.\nAll animals in the various treatment groups were sampled for VFA's twice a week. Equal volumes of rumen fluid from each animal within a treatment were pooled for treatment VFA analysis. Fluid from individual animals was also analyzed for VFA. Individual animal VFA's within a treatment were averaged. This value was then averaged with pooled treatment VFA yielding the final treatment VFA value. All ratios and statistics were calculated using this final value. VFA's were calculated as the ratio treated to its respective pretreatment value. Each of the trials lasted for 90 days."}, "[3]": {"test_system": "propionate production in the rumen", "settings": "oral administration to ruminants, Raun patents; cited from earlier work"}, "[4]": {"settings": "Table III, Group II, level 0.05 % of feed (approx. 60 ppm in rumen)"}, "[5]": {"settings": "Table III, Group III, level 0.075 % of feed"}, "[6]": {"settings": "Table III, Group IV, level 0.025 % of feed"}, "[7]": {"settings": "Table II, Group II, level 0.01 % of feed"}, "[8]": {"settings": "Table II, Group III, level 0.05 % of feed (approx. 60 ppm in rumen)"}, "[9]": {"settings": "Table II, Group IV, level 0.025 % of feed"}}}
{"smiles": "ClCCc1nnn[nH]1", "note": "[TCH2 CH2 Cl, 5-(2-Chloroethyl)Tetrazole]", "values": [{"measurement": "C2 (acetate), Ratio Treated to Control", "setting": "[1]", "result": 0.76}, {"measurement": "C3 (propionate), Ratio Treated to Control", "setting": "[1]", "result": 1.48}, {"measurement": "C4 (butyrate), Ratio Treated to Control", "setting": "[1]", "result": 0.92}, {"measurement": "Total VFA, Ratio Treated to Control", "setting": "[1]", "result": 1.03}, {"measurement": "inhibition at 50 ppm", "setting": "[1]", "result": 74.6, "unit": "%"}, {"measurement": "C2 (acetate), Ratio of Treatment VFA to Pretreatment VFA", "setting": "[2]; [4]", "result": 0.97}, {"measurement": "C3 (propionate), Ratio of Treatment VFA to Pretreatment VFA", "setting": "[2]; [4]", "result": 1.06}, {"measurement": "C4 (butyrate), Ratio of Treatment VFA to Pretreatment VFA", "setting": "[2]; [4]", "result": 1.11}, {"measurement": "Total VFA, Ratio of Treatment VFA to Pretreatment VFA", "setting": "[2]; [4]", "result": 0.88}, {"measurement": "C2 (acetate), Ratio of Treatment VFA to Pretreatment VFA", "setting": "[2]; [5]", "result": 0.92}, {"measurement": "C3 (propionate), Ratio of Treatment VFA to Pretreatment VFA", "setting": "[2]; [5]", "result": 1.24}, {"measurement": "C4 (butyrate), Ratio of Treatment VFA to Pretreatment VFA", "setting": "[2]; [5]", "result": 1.05}, {"measurement": "Total VFA, Ratio of Treatment VFA to Pretreatment VFA", "setting": "[2]; [5]", "result": 0.89}, {"measurement": "C2 (acetate), Ratio of Treatment VFA to Pretreatment VFA", "setting": "[2]; [6]", "result": 0.97}, {"measurement": "C3 (propionate), Ratio of Treatment VFA to Pretreatment VFA", "setting": "[2]; [6]", "result": 1.00}, {"measurement": "C4 (butyrate), Ratio of Treatment VFA to Pretreatment VFA", "setting": "[2]; [6]", "result": 1.20}, {"measurement": "Total VFA, Ratio of Treatment VFA to Pretreatment VFA", "setting": "[2]; [6]", "result": 1.05}]}
{"smiles": "O=C(CCl)NCCc1nnn[nH]1", "values": [{"measurement": "C2 (acetate), Ratio Treated to Control", "setting": "[1]", "result": 0.91}, {"measurement": "C3 (propionate), Ratio Treated to Control", "setting": "[1]", "result": 1.16}, {"measurement": "C4 (butyrate), Ratio Treated to Control", "setting": "[1]", "result": 1.05}, {"measurement": "Total VFA, Ratio Treated to Control", "setting": "[1]", "result": 1.02}, {"measurement": "inhibition at 50 ppm", "setting": "[1]", "result": 4.9, "unit": "%"}]}
{"smiles": "BrCCc1nnn[nH]1", "note": "[TCH2 CH2 Br]", "values": [{"measurement": "C2 (acetate), Ratio Treated to Control", "setting": "[1]", "result": 0.73}, {"measurement": "C3 (propionate), Ratio Treated to Control", "setting": "[1]", "result": 1.44}, {"measurement": "C4 (butyrate), Ratio Treated to Control", "setting": "[1]", "result": 1.25}, {"measurement": "Total VFA, Ratio Treated to Control", "setting": "[1]", "result": 0.91}, {"measurement": "inhibition at 50 ppm", "setting": "[1]", "result": 91.3, "unit": "%"}]}
{"smiles": "ClCc1nnn[nH]1", "note": "[TCH2 Cl, 5-Chloromethyltetrazole]", "values": [{"measurement": "C2 (acetate), Ratio Treated to Control", "setting": "[1]", "result": 0.74}, {"measurement": "C3 (propionate), Ratio Treated to Control", "setting": "[1]", "result": 1.49}, {"measurement": "C4 (butyrate), Ratio Treated to Control", "setting": "[1]", "result": 0.95}, {"measurement": "Total VFA, Ratio Treated to Control", "setting": "[1]", "result": 0.96}, {"measurement": "inhibition at 50 ppm", "setting": "[1]", "result": 96.8, "unit": "%"}, {"measurement": "C2 (acetate), Ratio of Treatment VFA to Pretreatment VFA", "setting": "[2]; [7]", "result": 1.01}, {"measurement": "C3 (propionate), Ratio of Treatment VFA to Pretreatment VFA", "setting": "[2]; [7]", "result": 0.98}, {"measurement": "C4 (butyrate), Ratio of Treatment VFA to Pretreatment VFA", "setting": "[2]; [7]", "result": 1.02}, {"measurement": "Total VFA, Ratio of Treatment VFA to Pretreatment VFA", "setting": "[2]; [7]", "result": 0.96}, {"measurement": "C2 (acetate), Ratio of Treatment VFA to Pretreatment VFA", "setting": "[2]; [8]", "result": 0.97}, {"measurement": "C3 (propionate), Ratio of Treatment VFA to Pretreatment VFA", "setting": "[2]; [8]", "result": 1.05}, {"measurement": "C4 (butyrate), Ratio of Treatment VFA to Pretreatment VFA", "setting": "[2]; [8]", "result": 1.04}, {"measurement": "Total VFA, Ratio of Treatment VFA to Pretreatment VFA", "setting": "[2]; [8]", "result": 0.88}, {"measurement": "C2 (acetate), Ratio of Treatment VFA to Pretreatment VFA", "setting": "[2]; [9]", "result": 0.96}, {"measurement": "C3 (propionate), Ratio of Treatment VFA to Pretreatment VFA", "setting": "[2]; [9]", "result": 1.10}, {"measurement": "C4 (butyrate), Ratio of Treatment VFA to Pretreatment VFA", "setting": "[2]; [9]", "result": 1.05}, {"measurement": "Total VFA, Ratio of Treatment VFA to Pretreatment VFA", "setting": "[2]; [9]", "result": 0.93}]}
{"smiles": "CC[C@@]1([C@@H]2O[C@@H]([C@H]3O[C@@](O)(CO)[C@H](C)C[C@@H]3C)C[C@@H]2C)CC[C@H]([C@]2(C)CC[C@]3(C[C@H](O)[C@@H](C)[C@@H]([C@@H](C)[C@@H](OC)[C@H](C)C(=O)O)O3)O2)O1", "note": "[monensin]", "values": [{"measurement": "propionate production (in words)", "setting": "[3]", "result": "propionate production could be increased"}]}
{"smiles": "CS(=O)(=O)NCCc1nnn[nH]1", "note": "[TCH2 CH2 NHSO2 CH3]", "values": [{"measurement": "C2 (acetate), Ratio Treated to Control", "setting": "[1]", "result": 0.99}, {"measurement": "C3 (propionate), Ratio Treated to Control", "setting": "[1]", "result": 1.04}, {"measurement": "C4 (butyrate), Ratio Treated to Control", "setting": "[1]", "result": 0.99}, {"measurement": "Total VFA, Ratio Treated to Control", "setting": "[1]", "result": 1.02}, {"measurement": "inhibition at 50 ppm", "setting": "[1]", "result": 0.7, "unit": "%"}]}
{"smiles": "C=C(NC(=O)C(=C)NC(=O)c1csc(C2=N[C@@H]3c4csc(n4)[C@H]4NC(=O)c5csc(n5)[C@H]([C@](C)(O)[C@@H](C)O)NC(=O)[C@H]5CSC(=N5)/C(=C/C)NC(=O)[C@H]([C@@H](C)O)NC(=O)c5csc(n5)[C@]3(CC2)NC(=O)[C@H](C)NC(=O)C(=C)NC(=O)[C@H](C)NC(=O)[C@H]([C@@H](C)CC)N[C@@H]2C=Cc3c([C@H](C)O)cc(nc3[C@H]2O)C(=O)O[C@@H]4C)n1)C(N)=O", "note": "[thiostrepton]", "values": [{"measurement": "propionate production (in words)", "setting": "[3]", "result": "propionate production could be increased"}]}
{"smiles": "CO[C@H]1CC[C@@H](O[C@H]2C[C@H]([C@]3(C)CC[C@]4(C[C@H](O)[C@@H](C)[C@@H]([C@@H](C)/C=C(\\C)C(=O)[C@H](C)C[C@H](C)C(=O)O)O4)O3)O[C@]3(O[C@@H]([C@H]4O[C@@](O)(CO)[C@H](C)C[C@@H]4C)C[C@@H]3C)[C@@H]2C)O[C@@H]1C", "note": "[dianemycin]", "values": [{"measurement": "propionate production (in words)", "setting": "[3]", "result": "propionate production could be increased"}]}
{"smiles": "Cc1ccc(S(=O)(=O)OCCc2nnn[nH]2)cc1", "values": [{"measurement": "C2 (acetate), Ratio Treated to Control", "setting": "[1]", "result": 0.92}, {"measurement": "C3 (propionate), Ratio Treated to Control", "setting": "[1]", "result": 1.23}, {"measurement": "C4 (butyrate), Ratio Treated to Control", "setting": "[1]", "result": 0.95}, {"measurement": "Total VFA, Ratio Treated to Control", "setting": "[1]", "result": 1.07}, {"measurement": "inhibition at 50 ppm", "setting": "[1]", "result": 8, "unit": "%"}]}
{"smiles": "CS(=O)(=O)NCCC#N", "note": "[CNCH2 CH2 NHSO2 CH3]", "values": [{"measurement": "C2 (acetate), Ratio Treated to Control", "setting": "[1]", "result": 0.7}, {"measurement": "C3 (propionate), Ratio Treated to Control", "setting": "[1]", "result": 1.58}, {"measurement": "C4 (butyrate), Ratio Treated to Control", "setting": "[1]", "result": 1.13}, {"measurement": "Total VFA, Ratio Treated to Control", "setting": "[1]", "result": 0.97}, {"measurement": "inhibition at 50 ppm", "setting": "[1]", "result": 73.4, "unit": "%"}]}
